# According to EP0620225B1, “Cephalosporin derivatives” (Basilea Pharmaceutica AG, priority 1993, dated 1994):
# Where a name gives a salt, the structure may show the parent alone.
# Experiments:
# Escherichia coli 25922 = assay: Efficacy against systemic infections (septicemia) in mice; type: in vivo; settings: 96 h, survival day 4
# Procedure, shortened: (§1)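 Swiss albino mice (16–20 g) infected i.p. with 4–10× the 48-h LD50 of each strain; compound given p.o. or s.c. at 1 and 3 h post-challenge, plus 5 h for P. aeruginosa BA. Five mice per group; ED50 (mg/kg) by probit analysis of day-4 survival.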
# [1] = system: Streptococcus pyogenes 15; assay: as above; type: in vivo; settings: 96 h, Streptococcus pyogenes 15, po (orally) 1 and 3 h after challenge, survival day 4
# Procedure, shortened: as §1
# [2] = system: Pseudomonas aeruginosa BA; assay: as above; type: in vivo; settings: 96 h, sc (subcutaneous) 1, 3 and 5 h after challenge, survival day 4
# Procedure, shortened: as §1
# [3] = system: Ps. aeruginosa ATCC 27853; assay: MIC, agar dilution method in Mueller Hinton agar; type: cell-based; settings: Pseudomonas aeruginosa, ATCC27853, read-out: Minimum Inhibiting Concentration Values
# Protocol: (§2) In vitro activity was determined by minimum inhibitory concentration in a microorganism spectum by the agar dilution method in Mueller Hinton agar.
# Prot. vulgaris ATCC 6380 = assay: MIC, agar dilution method in Mueller Hinton agar; type: cell-based; settings: Proteus vulgaris, ATCC6380, read-out: Minimum Inhibiting Concentration Values
# Protocol: as §2
# E. coli TEM-1 = assay: MIC, agar dilution method in Mueller Hinton agar; type: cell-based; settings: Escherichia coli, TEM1, read-out: Minimum Inhibiting Concentration Values
# Protocol: as §2
# Staph. aureus ATCC 29213 = assay: MIC, agar dilution method in Mueller Hinton agar; type: cell-based; settings: Staphylococcus aureus, ATCC29213, read-out: Minimum Inhibiting Concentration Values
# Protocol: as §2
# Ps. aeruginosa 5712 = assay: MIC, agar dilution method in Mueller Hinton agar; type: cell-based; settings: Pseudomonas aeruginosa, read-out: Minimum Inhibiting Concentration Values
# Protocol: as §2
# E. coli ATCC 25922 = assay: MIC, agar dilution method in Mueller Hinton agar; type: cell-based; settings: Escherichia coli, ATCC25922, read-out: Minimum Inhibiting Concentration Values
# Protocol: as §2
# Str. pneumoniae 6301 = assay: MIC, agar dilution method in Mueller Hinton agar; type: cell-based; settings: Streptococcus pneumoniae; Str. pneumoniae 6301; read-out: Minimum Inhibiting Concentration Values
# Protocol: as §2
# Staph. aureus Smith = assay: MIC, agar dilution method in Mueller Hinton agar; type: cell-based; settings: Staphylococcus aureus, read-out: Minimum Inhibiting Concentration Values
# Protocol: as §2
# Str. pyogenes 4 = assay: MIC, agar dilution method in Mueller Hinton agar; type: cell-based; settings: Streptococcus pyogenes, read-out: Minimum Inhibiting Concentration Values
# Protocol: as §2
# S.aureus MSSA = assay: In vitro activity against selected species (MIC50, MIC90, range); type: cell-based; settings: Staphylococcus aureus, medium MHB (Mueller Hinton Broth)
# E.faecium = assay: In vitro activity against selected species (MIC50, range); type: cell-based; settings: Enterococcus faecium, medium MHA
# Protocol: as §2
# M.catarrhalis = assay: In vitro activity against selected species (MIC50, MIC90, range); type: cell-based; settings: Moraxella catarrhalis, medium IsoB
# S.aureus Smith = assay: Efficacy against systemic infections (septicemia) in mice; type: in vivo; settings: Staphylococcus aureus, 96 h, sc 1 and 3 h after challenge, survival day 4
# Procedure, shortened: as §1
# E.faecalis [4] = assay: In vitro activity against selected species (MIC50, MIC90, range); type: cell-based; settings: Enterococcus faecalis, medium IsoB
# S.pneumoniae PEN-R = assay: as above; type: cell-based; settings: Streptococcus pneumoniae; for MIC: MIC range
# E.faecalis [5] = assay: as above; type: cell-based; settings: Enterococcus faecalis, medium MHA
# Protocol: as §2
# S.aureus MRSA = assay: as above; type: cell-based; settings: Staphylococcus aureus, medium MHA (Mueller Hinton Agar) +NaCl
# Protocol: as §2
# S.viridans group = assay: as above; type: cell-based; settings: Streptococcus viridans
# S.aureus 734 MRSA = assay: Antibacterial spectrum (MIC), agar dilution; type: cell-based; settings: Staphylococcus aureus, read-out: MIC
# Protocol: as §2
# P.vulgaris 1028 = assay: Antibacterial spectrum (MIC), agar dilution; type: cell-based; settings: Proteus vulgaris, read-out: MIC
# Protocol: as §2
# E.cloacae 908R = assay: Antibacterial spectrum (MIC), agar dilution; type: cell-based; settings: Enterobacter cloacae, read-out: MIC
# Protocol: as §2
# P.mirabilis 2117 = assay: Antibacterial spectrum (MIC), agar dilution; type: cell-based; settings: Proteus mirabilis, read-out: MIC
# Protocol: as §2
# H.influenzae 1 = assay: Antibacterial spectrum (MIC), agar dilution; type: cell-based; settings: Haemophilus influenzae, read-out: MIC
# Protocol: as §2
# X.maltophilia 1AC739 = assay: Antibacterial spectrum (MIC), agar dilution; type: cell-based; settings: Stenotrophomonas maltophilia, read-out: MIC
# Protocol: as §2
# L.monocytogenes BK23 = assay: Antibacterial spectrum (MIC), agar dilution; type: cell-based; settings: Listeria monocytogenes, read-out: MIC
# Protocol: as §2
# N.meningitidis 69480 = assay: Antibacterial spectrum (MIC), agar dilution; type: cell-based; settings: Neisseria meningitidis, read-out: MIC
# Protocol: as §2
# M.morganii 6H-137 = assay: Antibacterial spectrum (MIC), agar dilution; type: cell-based; settings: Morganella morganii, 6H137, read-out: MIC
# Protocol: as §2
# S.aureus 6538 = assay: Antibacterial spectrum (MIC), agar dilution; type: cell-based; settings: Staphylococcus aureus, read-out: MIC
# Protocol: as §2
# S.marcescens 69438 = assay: Antibacterial spectrum (MIC), agar dilution; type: cell-based; settings: Serratia marcescens, read-out: MIC
# Protocol: as §2
# P.asaccharolyticus 29743 = assay: Antibacterial spectrum (MIC), agar dilution; type: cell-based; settings: Peptoniphilus asaccharolyticus, read-out: MIC
# Protocol: as §2
# E.coli 25922 = assay: Antibacterial spectrum (MIC), agar dilution; type: cell-based; settings: Escherichia coli, read-out: MIC
# Protocol: as §2
# E.faecalis 6 = assay: Antibacterial spectrum (MIC), agar dilution; type: cell-based; settings: Enterococcus faecalis, read-out: MIC
# Protocol: as §2
# Acinetobacter sp.51-156 = assay: Antibacterial spectrum (MIC), agar dilution; type: cell-based; settings: SP.51156, read-out: MIC
# Protocol: as §2
# S.viridans group 016 = assay: Antibacterial spectrum (MIC), agar dilution; type: cell-based; settings: Streptococcus viridans, read-out: MIC
# Protocol: as §2
# P.aeruginosa 27853 = assay: Antibacterial spectrum (MIC), agar dilution; type: cell-based; settings: Pseudomonas aeruginosa, read-out: MIC
# Protocol: as §2
# S.agalactiae QK44 = assay: Antibacterial spectrum (MIC), agar dilution; type: cell-based; settings: Streptococcus agalactiae, read-out: MIC
# Protocol: as §2
# C.freundii 902 = assay: Antibacterial spectrum (MIC), agar dilution; type: cell-based; settings: Citrobacter freundii, read-out: MIC
# Protocol: as §2
# C.difficile ZH1 = assay: Antibacterial spectrum (MIC), agar dilution; type: cell-based; settings: Clostridioides difficile, read-out: MIC
# Protocol: as §2
# K.pneumoniae 418 = assay: Antibacterial spectrum (MIC), agar dilution; type: cell-based; settings: Klebsiella pneumoniae, read-out: MIC
# Protocol: as §2
# S.pyogenes B15 = assay: Antibacterial spectrum (MIC), agar dilution; type: cell-based; settings: Streptococcus pyogenes, read-out: MIC
# Protocol: as §2
# B.fragilis ATCC25285 = assay: Antibacterial spectrum (MIC), agar dilution; type: cell-based; settings: Bacteroides fragilis, read-out: MIC
# Protocol: as §2
# E.cloacae 908SSi = assay: Antibacterial spectrum (MIC), agar dilution; type: cell-based; settings: Enterobacter cloacae, read-out: MIC
# Protocol: as §2
# S.pneumoniae Q19 = assay: Antibacterial spectrum (MIC), agar dilution; type: cell-based; settings: Streptococcus pneumoniae, read-out: MIC
# Protocol: as §2
# M.catarrhalis RA21 = assay: Antibacterial spectrum (MIC), agar dilution; type: cell-based; settings: Moraxella catarrhalis, read-out: MIC
# Protocol: as §2
# C.freundii 43 = assay: Antibacterial spectrum (MIC), agar dilution; type: cell-based; settings: Citrobacter freundii, read-out: MIC
# Protocol: as §2
# [6] = Escherichia coli 25922, po (orally) 1 and 3 h after challenge
# [7] = medium IsoB (Isosensitest Broth)
structure (smiles),measurement,setting,value
"Nc1nc(/C(=N/OCC(=O)O)C(=O)N[C@@H]2C(=O)N3C(C(=O)O)=C(/C=C4\CCN(C5CC5)C4=O)CS[C@H]23)cs1 [C, [6R-[3(E),6α,7β(Z)]]-7-[[(2-Amino-4-thiazolyl)[(carboxy-methoxy)imino]-acetyl]amino]-3-[[1-cyclopropyl-2-oxo-3-pyrrolidinylidene]-methyl]-8-oxo-5-thia-1-azabicyclo[4.2.0]oct-2-ene-2-carboxylic acid disodium salt]",ED50,Escherichia coli 25922; [6],< 0.1 mg/kg
same,ED50,[1],0.78 mg/kg
same,ED50,[2],12 mg/kg
same,MIC,[3],4 µg/mL
same,MIC,Prot. vulgaris ATCC 6380,≤ 0.0156 µg/mL
same,MIC,E. coli TEM-1,0.0313 µg/mL
same,MIC,Staph. aureus ATCC 29213,16 µg/mL
same,MIC,Ps. aeruginosa 5712,4 µg/mL
same,MIC,E. coli ATCC 25922,0.0313 µg/mL
same,MIC,Str. pneumoniae 6301,0.0625 µg/mL
same,MIC,Staph. aureus Smith,8 µg/mL
same,MIC,Str. pyogenes 4,0.125 µg/mL
"C=CC1=C(C(=O)O)N2C(=O)[C@@H](NC(=O)/C(=N\OCC(=O)O)c3csc(N)n3)[C@H]2SC1 [Cefixime, reference compound]",ED50,Escherichia coli 25922; [6],0.5 mg/kg
same,ED50,[1],2 mg/kg
"Nc1nc(/C(=N/O)C(=O)N[C@@H]2C(=O)N3C(C(=O)O)=C(/C=C4\CCN(CC(F)(F)F)C4=O)CS[C@H]23)cs1 [E, [6R-[3(E),6α,7β(Z)]]-7-[[(2-Amino-4-thiazolyl)(hydroxyimino)-acetyl]amino]-3-[[1-(2,2,2-trifluoroethyl)-2-oxo-3-pyrrolidinylidene]-methyl]-8-oxo-5-thia-1-azabicyclo[4.2.0]oct-2-ene-2-carboxylic acid]",MIC,S.aureus MSSA; MIC range,0.5 to 1 µg/mL
same,MIC50,S.aureus MSSA,1 µg/mL
same,MIC90,S.aureus MSSA,1 µg/mL
same,MIC,E.faecium; MIC range,1 to 16 µg/mL
same,MIC50,E.faecium,4 µg/mL
same,MIC,M.catarrhalis; MIC range,1 to 16 µg/mL
same,MIC50,M.catarrhalis,4 µg/mL
same,MIC90,M.catarrhalis,16 µg/mL
same,ED50,Escherichia coli 25922; [6],3 mg/kg
same,ED50,"Escherichia coli 25922; Escherichia coli, E.coli 25922, sc 1 and 3 h after challenge",0.07 mg/kg
same,ED50,S.aureus Smith,< 1 mg/kg
same,MIC,E.faecalis [4]; MIC range,0.25 to 2 µg/mL
same,MIC50,E.faecalis [4],0.5 µg/mL
same,MIC90,E.faecalis [4],2 µg/mL
same,MIC,S.pneumoniae PEN-R; [7],0.12 to 0.5 µg/mL
same,MIC,S.pneumoniae PEN-R; medium IsoB + 20% serum,0.25 to 0.5 µg/mL
same,MIC50,S.pneumoniae PEN-R; [7],0.25 µg/mL
same,MIC90,S.pneumoniae PEN-R; [7],0.5 µg/mL
same,MIC50,S.pneumoniae PEN-R; medium IsoB + 20% serum,0.5 µg/mL
same,MIC,E.faecalis [5]; MIC range,1 to 2 µg/mL
same,MIC50,E.faecalis [5],1 µg/mL
same,MIC90,E.faecalis [5],2 µg/mL
same,MIC,S.aureus MRSA; MIC range,8 to 16 µg/mL
same,MIC50,S.aureus MRSA,8 µg/mL
same,MIC90,S.aureus MRSA,8 µg/mL
same,MIC50,S.viridans group,2 µg/mL
same,MIC90,S.viridans group,2 µg/mL
same,MIC,S.viridans group; MIC range,0.12 to 4 µg/mL
same,MIC,S.aureus 734 MRSA,8 µg/mL
same,MIC,P.vulgaris 1028,1 µg/mL
same,MIC,E.cloacae 908R,16 µg/mL
same,MIC,P.mirabilis 2117,≤ 0.06 µg/mL
same,MIC,H.influenzae 1,0.25 µg/mL
same,MIC,X.maltophilia 1AC739,> 32 µg/mL
same,MIC,L.monocytogenes BK23,4 µg/mL
same,MIC,N.meningitidis 69480,≤ 0.06 µg/mL
same,MIC,M.morganii 6H-137,≤ 0.06 µg/mL
same,MIC,S.aureus 6538,0.5 µg/mL
same,MIC,S.marcescens 69438,1 µg/mL
same,MIC,P.asaccharolyticus 29743,≤ 0.12 µg/mL
same,MIC,E.coli 25922,0.12 µg/mL
same,MIC,E.faecalis 6,1 µg/mL
same,MIC,Acinetobacter sp.51-156,16 µg/mL
same,MIC,S.viridans group 016,1 µg/mL
same,MIC,P.aeruginosa 27853,16 µg/mL
same,MIC,S.agalactiae QK44,0.25 µg/mL
same,MIC,C.freundii 902,0.12 µg/mL
same,MIC,C.difficile ZH1,8 µg/mL
same,MIC,K.pneumoniae 418,0.12 µg/mL
same,MIC,S.pyogenes B15,≤ 0.06 µg/mL
same,MIC,B.fragilis ATCC25285,8 µg/mL
same,MIC,E.cloacae 908SSi,0.25 µg/mL
same,MIC,S.pneumoniae Q19,≤ 0.06 µg/mL
same,MIC,M.catarrhalis RA21,16 µg/mL
same,MIC,C.freundii 43,4 µg/mL
